Earlier results, collected in paper PMC7904743, “WIDOCK: a reactive docking protocol for virtual screening of covalent inhibitors” (Journal of Computer-Aided Molecular Design, 2021).
Like-named read-outs stand apart in the source and are kept apart here.

Key:
[1] = thiol reactivity, cited from earlier work
OTUB2 = conditions: experimental actives if % labeling higher than 50%, cited from earlier work
NUDT7 = conditions: protein labeling at 200 μM; experimental actives if % labeling higher than 50%; cited from earlier work
[2] = natural log of average kinetic rate constant
[3] = natural log of average rate constant
[4] = natural log of average rate constant k
[5] = natural logarithm of average rate constant

SMILES: CC(C)(C)c1nnc(NC(=O)CCl)s1 [PCM-0102736, CC(C)(C)c1nnc(NC(=O)CCl)s1]
- ln(avg k) [1, 2]: -15.861
- ln(avg k) [1, 3]: -15.861
- OTUB2 % labeling (OTUB2; OTUB2 protein labeling): 0%
- NUDT7 % labeling (NUDT7): 0%

SMILES: O=C(CCl)Nc1cc2c(cc1Br)OCCO2 [PCM-0102299, O=C(CCl)Nc1cc2c(cc1Br)OCCO2]
- ln(avg k) [1, 4]: -16.302
- ln(avg k) [1, 5]: -16.302
- OTUB2 % labeling (OTUB2): 67%
- NUDT7 % labeling (NUDT7): 27%

SMILES: O=C(CCl)NCC1CCOC1 (stereo not drawn) [PCM-0102596, O=C(CCl)NCC1CCOC1]
- ln(avg k) [1, 4]: -16.248
- ln(avg k) [1, 5]: -16.248
- OTUB2 % labeling (OTUB2): 13%
- NUDT7 % labeling (NUDT7): 0%

SMILES: O=C1CC(C(F)(F)F)N(C(=O)CCl)c2ccccc2N1 (stereo not drawn) [PCM-0102363, O=C1CC(C(F)(F)F)N(C(=O)CCl)c2ccccc2N1]
- ln(avg k) [1, 4]: -15.654
- ln(avg k) [1, 5]: -15.654
- OTUB2 % labeling (OTUB2): 0%
- NUDT7 % labeling (NUDT7): 28%

SMILES: COC(=O)C1Cc2ccccc2CN1C(=O)CCl (stereo not drawn) [PCM-0102841, COC(=O)C1Cc2ccccc2CN1C(=O)CCl]
- ln(avg k) [1, 2]: -14.128
- ln(avg k) [1, 3]: -14.128
- OTUB2 % labeling (OTUB2; OTUB2 protein labeling): 41%
- NUDT7 % labeling (NUDT7): 19%

SMILES: COC(=O)c1sccc1NC(=O)CCl [PCM-0102367, COC(=O)c1sccc1NC(=O)CCl]
- ln(avg k) [1, 4]: -15.715
- ln(avg k) [1, 5]: -15.715
- OTUB2 % labeling (OTUB2): 0%
- NUDT7 % labeling (NUDT7): 12%

SMILES: NC(=O)c1ccccc1NC(=O)CCl [PCM-0102758, NC(=O)c1ccccc1NC(=O)CCl]
- ln(avg k) [1, 2]: -15.095
- ln(avg k) [1, 3]: -15.095
- OTUB2 % labeling (OTUB2; OTUB2 protein labeling): 0%
- NUDT7 % labeling (NUDT7): 0%

SMILES: O=C(CCl)Nc1cccc(C(F)(F)F)c1 [PCM-0102290, O=C(CCl)Nc1cccc(C(F)(F)F)c1]
- ln(avg k) [1, 4]: -15.516
- ln(avg k) [1, 5]: -15.516
- OTUB2 % labeling (OTUB2): 26%
- NUDT7 % labeling (NUDT7): 12%

SMILES: O=C(CCl)Nc1ccccc1N1CCCC1=O [PCM-0102375, O=C(CCl)Nc1ccccc1N1CCCC1=O]
- ln(avg k) [1, 4]: -16.453
- ln(avg k) [1, 5]: -16.453
- OTUB2 % labeling (OTUB2): 13%
- NUDT7 % labeling (NUDT7): 0%

SMILES: CC1CCCN(C(=O)CCl)C1 (stereo not drawn) [PCM-0102867, CC1CCCN(C(=O)CCl)C1]
- ln(avg k) [1, 2]: -16.989
- ln(avg k) [1, 3]: -16.989
- OTUB2 % labeling (OTUB2; OTUB2 protein labeling): 0%
- NUDT7 % labeling (NUDT7): 0%

SMILES: O=C(CCl)N(C1=CCCCC1)C1CC1 [PCM-0102745, O=C(CCl)N(C1=CCCCC1)C1CC1]
- ln(avg k) [1, 2]: -16.466
- ln(avg k) [1, 3]: -16.466
- OTUB2 % labeling (OTUB2; OTUB2 protein labeling): 0%
- NUDT7 % labeling (NUDT7): 0%

SMILES: COCC(=O)NC(=O)CCl [PCM-0102904, COCC(=O)NC(=O)CCl]
- ln(avg k) [1, 2]: -18.669
- ln(avg k) [1, 3]: -18.669
- OTUB2 % labeling (OTUB2; OTUB2 protein labeling): 0%
- NUDT7 % labeling (NUDT7): 0%

SMILES: O=C(CCl)N(C1CCCC1)C1CCS(=O)(=O)C1 (stereo not drawn) [PCM-0102313, O=C(CCl)N(C1CCCC1)C1CCS(=O)(=O)C1]
- ln(avg k) [1, 4]: -15.397
- ln(avg k) [1, 5]: -15.397
- OTUB2 % labeling (OTUB2): 0%
- NUDT7 % labeling (NUDT7): 11%

SMILES: C#Cc1cccc(NC(=O)CCl)c1 [PCM-0102735, C#Cc1cccc(NC(=O)CCl)c1]
- ln(avg k) [1, 2]: -17.384
- ln(avg k) [1, 3]: -17.384
- OTUB2 % labeling (OTUB2; OTUB2 protein labeling): 9%
- NUDT7 % labeling (NUDT7): 0%

SMILES: CCOC(=O)C1CCCCN1C(=O)CCl (stereo not drawn) [PCM-0102937, CCOC(=O)C1CCCCN1C(=O)CCl]
- ln(avg k) [1, 2]: -16.030
- ln(avg k) [1, 3]: -16.030
- OTUB2 % labeling (OTUB2; OTUB2 protein labeling): 13%
- NUDT7 % labeling (NUDT7): 0%

SMILES: Cc1ccc(-n2nc(C)c(NC(=O)CCl)c2C)cc1 [PCM-0102131, Cc1ccc(-n2nc(C)c(NC(=O)CCl)c2C)cc1]
- ln(avg k) [1, 4]: -16.325
- ln(avg k) [1, 5]: -16.325
- OTUB2 % labeling (OTUB2): 0%
- NUDT7 % labeling (NUDT7): 0%

SMILES: O=C(CCl)N1CCN(Cc2ccsc2)CC1 [PCM-0102739, O=C(CCl)N1CCN(Cc2ccsc2)CC1]
- ln(avg k) [1, 2]: -15.640
- ln(avg k) [1, 3]: -15.640
- OTUB2 % labeling (OTUB2; OTUB2 protein labeling): 0%
- NUDT7 % labeling (NUDT7): 7%

SMILES: CC(=O)Nc1ccc(NC(=O)CCl)cc1 [PCM-0102114, CC(=O)Nc1ccc(NC(=O)CCl)cc1]
- ln(avg k) [1, 4]: -16.157
- ln(avg k) [1, 5]: -16.157
- OTUB2 % labeling (OTUB2): 0%
- NUDT7 % labeling (NUDT7): 0%

SMILES: O=C(CCl)NC(=O)Nc1ccc2c(c1)OCO2 [PCM-0102333, O=C(CCl)NC(=O)Nc1ccc2c(c1)OCO2]
- ln(avg k) [1, 4]: -15.968
- ln(avg k) [1, 5]: -15.968
- OTUB2 % labeling (OTUB2): 53%
- NUDT7 % labeling (NUDT7): 29%

SMILES: CC(=O)c1cccc(NC(=O)CCl)c1 [PCM-0102965, CC(=O)c1cccc(NC(=O)CCl)c1]
- ln(avg k) [1, 2]: -15.751
- ln(avg k) [1, 3]: -15.751
- OTUB2 % labeling (OTUB2; OTUB2 protein labeling): 36%
- NUDT7 % labeling (NUDT7): 0%

SMILES: COc1ccc2c(c1)CCCN2C(=O)CCl [PCM-0102325, COc1ccc2c(c1)CCCN2C(=O)CCl]
- ln(avg k) [1, 4]: -15.257
- ln(avg k) [1, 5]: -15.257
- OTUB2 % labeling (OTUB2): 0%
- NUDT7 % labeling (NUDT7): 12%
